Test results reported in the NIST ThermoML archive (doi:10.1021/je034189g).
Numbers after ± are expanded uncertainties.

Conditions: Liquid; Ebulliometric method (Recirculating still)

| Normal boiling temperature [°C] | SMILES |
| --- | --- |
| 153.62 ± 0.15 | COc1ccccc1 [anisole] |
| 80.01 ± 0.15 | c1ccccc1 [benzene] |
| 80.63 ± 0.15 | C1CCCCC1 [cyclohexane] |
| 137.63 ± 0.15 | CCCCCO [pentan-1-ol] |
